Like-named read-outs stand apart in the source and are kept apart here. Marks after values point to notes of the source that are not given here.
Key:
[1] = tested on: Escherichia coli isolate ATCC25922; conditions: subcutaneous BID
Pseudomonas aeruginosa [2] = assay: MIC, sole activity (no second agent); assay type: cell-based
Outline: (§1)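 Up to four strains per species were tested in cation-adjusted Mueller-Hinton broth, with inoculum made by direct colony suspension from 18-24 hour Mueller-Hinton agar plates, adjusted to 0.5 McFarland. Duplicates differing by under 2-fold gave the lower value; greater spread voided the run. Values are relative to Polymyxin B.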

Klebsiella pneumoniae [3] = assay: MIC, sole activity (no second agent); assay type: cell-based
Outline: as §1

Escherichia coli [4] = assay: MIC, sole activity (no second agent); assay type: cell-based
Outline: as §1

Acinetobacter baumannii [5] = assay: MIC, sole activity (no second agent); assay type: cell-based
Outline: as §1

Pseudomonas aeruginosa [6] = assay: MIC, compound in combination with a second agent (broth microdilution); assay type: cell-based; conditions: for MIC P. aeruginosa ATCC 10145: total drug concentration
Outline: (§2)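 Read-out is the total-drug MIC of a 1:1 weight ratio combination with another agent, e.g. rifampicin. Duplicates within 2-fold gave the lower value; wider spread meant a non-valid assay. Where compounds were tested multiple times, the mode is given.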

Klebsiella pneumoniae [7] = assay: as above; assay type: cell-based; conditions: for MIC K. pneumoniae ATCC 4352 / MIC K. pneumoniae CCUG 59349: total drug concentration
Outline: as §2

Escherichia coli [8] = assay: as above; assay type: cell-based
Outline: as §2

Acinetobacter baumannii [9] = assay: as above; assay type: cell-based
Outline: as §2

[10] = Table 6A, no second agent, different supplier of Cation-adjusted MHB
[11] = 1:1 combination with Aztreonam, total drug concentration

Substance: Polymyxin B [reference compound]
- Mean log10 CFU reduction vs. control ([1]; Table 11, total daily dosage 3 mg/kg (sulfate salt), 24 h post-infection): 2.5 ^a log10 CFU
- Mean log10 CFU reduction vs. control ([1]; Table 11, total daily dosage 10 mg/kg (sulfate salt), 24 h post-infection): 4.2 ^a log10 CFU
- Mean log10 CFU reduction vs. control ([1]; Table 11A, separate study, total daily dosage 3 mg/kg (sulfate salt)): 3.75 log10 CFU
- Mean log10 CFU reduction vs. control ([1]; Table 11A, separate study, total daily dosage 10 mg/kg (sulfate salt)): 4.87 log10 CFU
- MIC P. aeruginosa ATCC 10145 (Pseudomonas aeruginosa [2]; Second Agent none (Table 7E)): 0.5 micrograms/mL
- MIC P. aeruginosa ATCC 27853 (Pseudomonas aeruginosa [2]; [10]): 0.5 micrograms/mL
- MIC P. aeruginosa CCUG 59347 (Pseudomonas aeruginosa [2]; [10]): 0.5 micrograms/mL
- MIC P. aeruginosa ATCC 10145 (Pseudomonas aeruginosa [2]; Table 7F, P. aeruginosa ATCC 10145, second agent none): 0.5 micrograms/mL
- MIC P. aeruginosa ATCC 10145 (Pseudomonas aeruginosa [2]; Table 7H, P. aeruginosa ATCC 10145, second agent none): 0.5 micrograms/mL
- MIC P. aeruginosa ATCC 27853 (Pseudomonas aeruginosa [2]; in the absence of Rifampicin, strain ATCC27853): 0.5 micrograms/mL
- MIC P. aeruginosa ATCC-47 (Pseudomonas aeruginosa [2]; in the absence of Rifampicin, strain ATCC-47): 2 micrograms/mL
- MIC P. aeruginosa ATCCCRM-9027 (Pseudomonas aeruginosa [2]; in the absence of Rifampicin, strain ATCCCRM-9027): 0.25 micrograms/mL
- MIC P. aeruginosa CCUG 59626 (Pseudomonas aeruginosa [2]; in the absence of Rifampicin, strain CCUG 59626): 0.5 micrograms/mL
- MIC K. pneumoniae CCUG 59349 (Klebsiella pneumoniae [3]; Second Agent none (Table 7E)): 0.5 micrograms/mL
- MIC K. pneumoniae ATCC 4352 (Klebsiella pneumoniae [3]; [10]): 0.25 micrograms/mL
- MIC K. pneumoniae ATCC BAA-2146 (Klebsiella pneumoniae [3]; [10]): 0.5 micrograms/mL
- MIC K. pneumoniae CCUG 59349 (Klebsiella pneumoniae [3]; Table 7F, K. pneumoniae CCUG 59349, second agent none): 0.5 micrograms/mL
- MIC K. pneumoniae CCUG 59349 (Klebsiella pneumoniae [3]; Table 7H, K. pneumoniae CCUG 59349, second agent none): 0.5 micrograms/mL
- MIC K. pneumoniae ATCC 4352 (Klebsiella pneumoniae [3]; in the absence of Rifampicin, strain ATCC 4352): 1 micrograms/mL
- MIC K. pneumoniae ATCC-BAA2146 (Klebsiella pneumoniae [3]; in the absence of Rifampicin, strain ATCC-BAA2146): 2 micrograms/mL
- MIC K. pneumoniae CCUG-59348 (Klebsiella pneumoniae [3]; in the absence of Rifampicin, strain CCUG-59348): 16 micrograms/mL
- MIC K. pneumoniae NCTC-13438 (Klebsiella pneumoniae [3]; in the absence of Rifampicin, strain NCTC-13438): 1 micrograms/mL
- MIC E. coli ATCC25922 (Escherichia coli [4]; Second Agent none (Table 7E)): 0.5 micrograms/mL
- MIC E. coli NCTC 13441 (Escherichia coli [4]; Second Agent none (Table 7E)): 1 micrograms/mL
- MIC E. coli ATCC25922 (Escherichia coli [4]; [10]): 0.25 micrograms/mL
- MIC E. coli NCTC 13441 (Escherichia coli [4]; [10]): 0.25 micrograms/mL
- MIC E. coli ATCC25922 (Escherichia coli [4]; Table 7F, E. coli ATCC25922, second agent none): 0.5 micrograms/mL
- MIC E. coli NCTC 13441 (Escherichia coli [4]; Table 7F, E. coli NCTC 13441, second agent none): 1 micrograms/mL
- MIC E. coli ATCC25922 (Escherichia coli [4]; Table 7G, E. coli ATCC25922, second agent none): 0.5 micrograms/mL
- MIC E. coli ATCC25922 (Escherichia coli [4]; Table 7H, E. coli ATCC25922, second agent none): 0.5 micrograms/mL
- MIC E. coli NCTC 13441 (Escherichia coli [4]; Table 7H, E. coli NCTC 13441, second agent none): 1 micrograms/mL
- MIC E. coli ATCC25922 (Escherichia coli [4]; Table 7I, E. coli ATCC25922, second agent none): 0.5 micrograms/mL
- MIC E. coli ATCC25922 (Escherichia coli [4]; in the absence of Rifampicin, strain ATCC25922): 1 micrograms/mL
- MIC E. coli NCTC9001 (Escherichia coli [4]; in the absence of Rifampicin, strain NCTC9001): 1 micrograms/mL
- MIC A. baumannii NCTC 13424 (Acinetobacter baumannii [5]; Second Agent none (Table 7E)): 0.125 micrograms/mL
- MIC A. baumannii ATCC BAA-747 (Acinetobacter baumannii [5]; [10]): 0.25 micrograms/mL
- MIC A. baumannii NCTC 13424 (Acinetobacter baumannii [5]; [10]): 0.5 micrograms/mL
- MIC A. baumannii NCTC 13424 (Acinetobacter baumannii [5]; Table 7F, A. baumannii NCTC 13424, second agent none): 0.125 micrograms/mL
- MIC A. baumannii NCTC 13424 (Acinetobacter baumannii [5]; Table 7H, A. baumannii NCTC 13424, second agent none): 0.125 micrograms/mL
- MIC A. baumannii ATCC13424 (Acinetobacter baumannii [5]; in the absence of Rifampicin, strain ATCC13424): 1 micrograms/mL
- MIC A. baumannii ATCCBAA-747 (Acinetobacter baumannii [5]; in the absence of Rifampicin, strain ATCCBAA-747): 0.5 micrograms/mL
- MIC A. baumannii CCUG57249 (Acinetobacter baumannii [5]; in the absence of Rifampicin, strain CCUG 57249): 1 micrograms/mL
- MIC A. baumannii NCTC 13423 (Acinetobacter baumannii [5]; in the absence of Rifampicin, strain NCTC13423): 0.5 micrograms/mL
- MIC P. aeruginosa ATCC 27853 (Pseudomonas aeruginosa [6]; 1:1 (wt:wt) combination with Rifampicin, MIC = total drug concentration, strain ATCC 27853): 0.5 micrograms/mL
- MIC P. aeruginosa ATCC CRM-9027 (Pseudomonas aeruginosa [6]; 1:1 (wt:wt) combination with Rifampicin, MIC = total drug concentration, strain ATCC CRM-9027): 0.25 micrograms/mL
- MIC P. aeruginosa ATCC-47 (Pseudomonas aeruginosa [6]; 1:1 (wt:wt) combination with Rifampicin, MIC = total drug concentration, strain ATCC-47): 0.5 micrograms/mL
- MIC P. aeruginosa CCUG 59626 (Pseudomonas aeruginosa [6]; 1:1 (wt:wt) combination with Rifampicin, MIC = total drug concentration, strain CCUG 59626): 0.5 micrograms/mL
- MIC P. aeruginosa ATCC 10145 (Pseudomonas aeruginosa [6]; 1:1 combination with Aztreonam): 1 micrograms/mL
- MIC P. aeruginosa ATCC 10145 (Pseudomonas aeruginosa [6]; P. aeruginosa ATCC 10145, 1:1 combination with Azithromycin): 1 micrograms/mL
- MIC P. aeruginosa ATCC 10145 (Pseudomonas aeruginosa [6]; P. aeruginosa ATCC 10145, 1:1 combination with Novobiocin): 1 micrograms/mL
- MIC K. pneumoniae ATCC-BAA-2146 (Klebsiella pneumoniae [7]; 1:1 (wt:wt) combination with Rifampicin, MIC = total drug concentration, strain ATCC-BAA-2146): 1 micrograms/mL
- MIC K. pneumoniae CCUG-59348 (Klebsiella pneumoniae [7]; 1:1 (wt:wt) combination with Rifampicin, MIC = total drug concentration, strain CCUG-59348): 1 micrograms/mL
- MIC K. pneumoniae NCTC 13438 (Klebsiella pneumoniae [7]; 1:1 (wt:wt) combination with Rifampicin, MIC = total drug concentration, strain NCTC 13438): 1 micrograms/mL
- MIC K. pneumoniae ATCC 4352 (Klebsiella pneumoniae [7]; 1:1 combination with Aztreonam): ≤0.06 micrograms/mL
- MIC K. pneumoniae CCUG 59349 (Klebsiella pneumoniae [7]; 1:1 combination with Aztreonam): 2 micrograms/mL
- MIC K. pneumoniae ATCC 4352 (Klebsiella pneumoniae [7]; K. pneumoniae ATCC4352, 1:1 combination with Azithromycin): 0.25 micrograms/mL
- MIC K. pneumoniae ATCC 4352 (Klebsiella pneumoniae [7]; K. pneumoniae ATCC4352, 1:1 combination with Fusidic acid): 1 micrograms/mL
- MIC K. pneumoniae ATCC 4352 (Klebsiella pneumoniae [7]; K. pneumoniae ATCC4352, 1:1 combination with Novobiocin): 0.25 micrograms/mL
- MIC K. pneumoniae ATCC 4352 (Klebsiella pneumoniae [7]; K. pneumoniae ATCC4352, 1:1 combination with Oxacillin): 4 micrograms/mL
- MIC K. pneumoniae CCUG 59349 (Klebsiella pneumoniae [7]; K. pneumoniae CCUG 59349, 1:1 combination with Azithromycin): 2 micrograms/mL
- MIC K. pneumoniae CCUG 59349 (Klebsiella pneumoniae [7]; K. pneumoniae CCUG 59349, 1:1 combination with Novobiocin): 1 micrograms/mL
- MIC E. coli ATCC25922 (Escherichia coli [8]; 1:1 (wt:wt) combination with Rifampicin, MIC = total drug concentration, strain ATCC25922): 0.25 micrograms/mL
- MIC E. coli NCTC9001 (Escherichia coli [8]; 1:1 (wt:wt) combination with Rifampicin, MIC = total drug concentration, strain NCTC9001): 0.5 micrograms/mL
- MIC E. coli ATCC25922 (Escherichia coli [8]; [11]): 0.125 micrograms/mL
- MIC E. coli NCTC 13441 (Escherichia coli [8]; [11]): 1 micrograms/mL
- MIC E. coli ATCC25922 (Escherichia coli [8]; E. coli ATCC25922, 1:1 combination with Azithromycin, total drug concentration): 0.25 micrograms/mL
- MIC E. coli ATCC25922 (Escherichia coli [8]; E. coli ATCC25922, 1:1 combination with Fusidic acid, total drug concentration): 2 micrograms/mL
- MIC E. coli ATCC25922 (Escherichia coli [8]; E. coli ATCC25922, 1:1 combination with Novobiocin, total drug concentration): 0.5 micrograms/mL
- MIC E. coli ATCC25922 (Escherichia coli [8]; E. coli ATCC25922, 1:1 combination with Oxacillin, total drug concentration): 2 micrograms/mL
- MIC E. coli NCTC 13441 (Escherichia coli [8]; E. coli NCTC 13441, 1:1 combination with Azithromycin, total drug concentration): 1 micrograms/mL
- MIC E. coli NCTC 13441 (Escherichia coli [8]; E. coli NCTC 13441, 1:1 combination with Novobiocin, total drug concentration): 1 micrograms/mL
- MIC A. baumannii ATCC BAA-747 (Acinetobacter baumannii [9]; 1:1 (wt:wt) combination with Rifampicin, MIC = total drug concentration, strain ATCC BAA-747): 0.125 micrograms/mL
- MIC A. baumannii CCUG57249 (Acinetobacter baumannii [9]; 1:1 (wt:wt) combination with Rifampicin, MIC = total drug concentration, strain CCUG57249): 0.25 micrograms/mL
- MIC A. baumannii NCTC 13423 (Acinetobacter baumannii [9]; 1:1 (wt:wt) combination with Rifampicin, MIC = total drug concentration, strain NCTC 13423): 0.125 micrograms/mL
- MIC A. baumannii NCTC 13424 (Acinetobacter baumannii [9]; 1:1 (wt:wt) combination with Rifampicin, MIC = total drug concentration, strain NCTC 13424): 0.5 micrograms/mL
- MIC A. baumannii NCTC 13424 (Acinetobacter baumannii [9]; [11]): 1 micrograms/mL
- MIC A. baumannii NCTC 13424 (Acinetobacter baumannii [9]; A. baumannii NCTC 13424, 1:1 combination with Azithromycin, total drug concentration): 1 micrograms/mL
- MIC A. baumannii NCTC 13424 (Acinetobacter baumannii [9]; A. baumannii NCTC 13424, 1:1 combination with Novobiocin, total drug concentration): 0.125 micrograms/mL
